System: C57BL/6J male mice
Experiment: AMLN diet NASH mouse model, drug provided in the AMLN diet
Type: in vivo
Settings: 60 mg/kg mifepristone in AMLN diet, 8 weeks, vs diet-alone control (FIG. 8A)
Description: Two studies were conducted in C57BL/6J male mice (n=12 per group) maintained on a diet high in fat (40%), cholesterol (2%) and fructose (20%; referred to as the AMLN diet: see, e.g., Tolbol et al., World Journal of Gastroenterology, 24(2):179-194 (2018)) for 42 weeks before dosing with miricorilant was initiated. In the first study, all animals ate the AMLN diet, and received either placebo, 30 mg/kg miricorilant, or 60 mg/kg mifepristone once per day orally. […] All animals received the AMLN diet for 42 weeks prior to receiving their first dose of study drug or placebo. 4 weeks prior to receiving that first dose, a liver biopsy and histological examination of biopsy tissue was performed for each animal; 3 weeks prior to receiving that first dose, animals were randomized into three groups: control, miricorilant, or mifepristone. Only mice with fibrosis stage >=1 and steatosis score >=2 were allowed in the study and the groups were stratified according to liver col1a1 so that each study group had similar overall distributions of liver col1a1 among the mice. All animals continued on the study diet for the 3 weeks following randomization, at which time study drug or placebo administration began. All animals received their assigned drugs for 8 weeks (the 8 week in vivo study period). At 56 days (week 8) after initiation of drug administration, plasma ALT, AST, triglycerides, total cholesterol, and miricorilant levels were measured, and animals were sacrificed, liver necropsies were performed, liver histological ((NAFLD Activity Score, Fibrosis Stage, steatosis (scored using hematoxylin and eosin staining (HE)), col1a (scored using immunohistochemistry (IHC)) and Galectin-3 (IHC)) and liver biochemical measurements (including liver triglycerides and total cholesterol) were made, and liver and plasma samples were obtained for genetic ((e.g., RNA sequencing) and other analyses.
Thus, in these studies, the mice were subjected to a liver biopsy approximately 4 weeks before initiation of dosing with miricorilant and only mice with confirmed fibrosis (fibrosis stage ≥1) and steatosis (score ≥2) were entered into the study. At the end of the dosing period, blood samples were collected for determination of plasma ALT, AST, triglycerides, total cholesterol, and miricorilant. Liver samples were collected for analysis of triglycerides, total cholesterol, hydroxyproline, and histopathology. Body weight and food consumption were monitored throughout the study.
Type I collagen IHC staining Type I collagen (Southern Biotech, Cat. 1310-01) IHC were performed using standard procedures. Briefly, after antigen retrieval and blocking of endogenous peroxidase activity, slides were incubated with primary antibody. The primary antibody was detected using a polymeric HRP-linker antibody conjugate. Next, the primary antibody was visualized with DAB as chromogen. Finally, sections were counterstained in hematoxylin and cover-slipped.
Liver Galectin-3 content Galectin-3 (Biolegend, Cat. #125402) IHC was performed using standard procedures. Briefly, after antigen retrieval and blocking of endogenous peroxidase activity, slides were incubated with primary antibody. The primary antibody was detected using a linker secondary antibody followed by amplification using a polymeric HRP-linker antibody conjugate. Next, the primary antibody was visualized with DAB as chromogen. Finally, sections were counterstained in hematoxylin and cover-slipped.
Total liver col1a1 was evaluated from liver samples stained with anti-type I collagen (col1a1) (Southern Biotech, cat. 1310-01) at the end of the treatment period (typically using low power (20×) magnification). Galectin-3 content was evaluated from images of liver samples stained with anti-Galectin-3 (BioLegend, Cat. 125402) at the end of the treatment period (typically using low power (20×) magnification). Terminal relative (left) and total (right) liver type I Collagen (Col1a1) quantification was determined by morphometry. […]

## CC#C[C@]1(O)CC[C@H]2[C@@H]3CCC4=CC(=O)CCC4=C3[C@@H](c3ccc(N(C)C)cc3)C[C@@]21C [mifepristone, reference compound]
  Liver weight at termination of the study: significantly increased

— patent US12616698B2, “Methods for reducing liver fat and for treating fatty liver disorders” (Corcept Therapeutics Incorporated, priority 2021, dated 2026)
